Source: patent US7485626B2, “Combinations of enzyme inhibitor-containing preparations and the use thereof” (IMTM GmbH, priority 2000, dated 2009)

Legend:
Type in all cases: cell-based
[1] = tested on: human peripheric mononuclear cells (MNZ); experiment: Proliferation of PHA-activated human mononuclear cells (WST-1 cell proliferation assay); conditions: 72 h; for Proliferation of PHA-activated human mononuclear cells (MNZ), number of metabolically active cells: single or simultaneous administration of I49 and Apstatin (X-Pro-aminopeptidase inhibitor), FIG. 10; for Proliferation of human peripheric mononuclear cells (MNZ), number of metabolically active cells: single and simultaneous administration of I49 and Actinonin, PHA, FIG. 7
Experimental: FIG. 7: The MNZ were incubated for a time period of 72 h without addition (control), with an addition of the mitogenic lectin phytohemagglutinin (PHA), and with the addition of PHA and the inhibitors mentioned above, respectively. Subsequently, the number amount of metabolically active cells was determined by using the commercially available WST-1 cell proliferation assay (Takara Inc.) in accordance with the provisions of the manufacturer.
FIG. 10: The mononuclear cells (MNZ) were incubated for a time period of 72 h in the presence of the inhibitors mentioned above single and in combination. Subsequently, the number of metabolically active cells was determined by using the commercially available WST-1 cell proliferation assay (Takara Inc.) in accordance with the provisions of the manufacturer.

[2] = tested on: human T cell line KARPAS-299; experiment: Proliferation of KARPAS-299 cells (WST-1 cell proliferation assay); conditions: single and simultaneous administration of I49 and APN inhibitors (Actinonin and Probestin); FIG. 8
Experimental: FIG. 8: The KARPAS-299 cells were incubated without addition (control) and in the presence of single inhibitors mentioned above as well as in the presence of combinations thereof, respectively. Subsequently, the number of metabolically active cells was determined by using the commercially available WST-1 cell proliferation assay (Takara Inc.) in accordance with the provisions of the manufacturer.

[3] = tested on: human peripheric T lymphocytes; experiment: DNA synthesis of human T lymphocytes (3[H]-thymidine incorporation); conditions: 72 h incubation; for DNA synthesis of human peripheric T lymphocytes: simultaneous administration of I49 (DP IV inhibitor) and Actinonin (APN inhibitor), FIG. 1
Experimental: The T cells were incubated for 72 h in the presence of said inhibitors and subsequently, the DNA synthesis rate was determined via a measurement of the ^3[H]-thymidin incorporation, as was described by Reinhold et al. [D. Reinhold et al.: “Inhibitors of dipeptidyl peptidase IV induce secretion of transforming growth factor β1 in PWM-stimulated PBMNC and T cells”, Immunology 1997, 91, 354-360].
Human peripheric T cells were incubated over 3 days with the concentrations of the inhibitors shown. Subsequently, ^3[H]-methyl thymidine was added to the culture medium, and the amount of ^3[H]-thymidine inserted into the DNA was measured after further 6 hours.
The T cells were incubated for 72 h in the presence of said inhibitors, and the DNA synthesis rate was determined subsequently by the measurement of the ^3[H]-thymidine incorporation, as was described by Reinhold et al. [D. Reinhold et al.: “Inhibitors of dipeptidyl peptidase IV induce secretion of transforming growth factor β1 in PWM-stimulated PBMNC and T cells”, Immunology 1997, 91, 354-360].
FIG. 3 show a the synergistic and dose-dependent effect of inhibitors of DP IV (I49) and of prolyl oligopeptidase (Boc-Ala-Thia) on the DNA synthesis of human peripheric T lymphocytes. Human T cells were incubated for three days with the concentrations of inhibitors mentioned above. Subsequently, ^3[H]-methyl thymidine was added to the culture medium, and the amount of ^3[H]-thymidine incorporated into the DNA was measured after further 6 hours.
Human T cells were incubated for three days with the concentrations of inhibitors mentioned above. Subsequently, ^3[H]-methyl thymidine was added to the culture medium, and the amount of ^3[H]-thymidine incorporated into the DNA was measured after further 6 hours.

[4] = tested on: activated human peripheric T cells; experiment: Proliferation of activated human peripheric T cells (WST-1 cell proliferation assay); conditions: single or simultaneous administration of I49 and APN inhibitors (Actinonin and Probestin); activated with phytohemagglutinine and phorbol-12-myristate-13-acetate; 72 h; FIG. 9
Experimental: FIG. 9: The T cells, with the exception of the untreated control, were activated by an addition of phytohemagglutinine and phorbol-12-myristate-13-acetate to the culture medium and were incubated for a time period of 72 h in the presence of the above-mentioned inhibitors single and in combination. Subsequently, the number of metabolically active cells was determined by using the commercially available WST-1 cell proliferation assay (Takara Inc.) in accordance with the provisions of the manufacturer.

[5] = tested on: human peripheric mononuclear cells (MNZ); experiment: DNA synthesis of human peripheric mononuclear cells (3[H]-thymidine incorporation); conditions: 72 h incubation
Experimental: The MNZ were incubated for 72 h in the presence of said inhibitors, and the DNA synthesis rate was determined subsequently by the measurement of the ^3[H]-thymidine incorporation, as was described by Reinhold et al. [D. Reinhold et al.: “Inhibitors of dipeptidyl peptidase IV induce secretion of transforming growth factor β1 in PWM-stimulated PBMNC and T cells”, Immunology 1997, 91, 354-360].
Human MNZ were incubated for three days with the concentrations of inhibitors mentioned above. Subsequently, ^3[H]-methyl thymidine was added to the culture medium, and the amount of ^3[H]-thymidine incorporated into the DNA was measured after further 6 hours.

[6] = simultaneous administration of I49 (DP IV inhibitor) and Boc-Ala-thiazolidid (prolyl oligopeptidase inhibitor), FIG. 3
[7] = simultaneous administration of I49 (DP IV inhibitor) and Captopril (ACE inhibitor), FIG. 5
[8] = simultaneous administration of I49 (DP IV inhibitor) and Boc-Ala-Thiazolidid (prolyl oligopeptidase inhibitor), FIG. 4
[9] = simultaneous administration of I49 (DP IV inhibitor) and Captopril (ACE inhibitor), FIG. 6
[10] = simultaneous administration of I49 (DP IV inhibitor) and actinonine (APN inhibitor), FIG. 2

Compound	Proliferation of PHA-activated human mononuclear cells (MNZ), number of metabolically active cells [1]	Proliferation of the human T cell line KARPAS-299, number of metabolically active cells [2]	DNA synthesis of human peripheric T lymphocytes [3]	DNA synthesis of human T lymphocytes [3, 6]	DNA synthesis of human T lymphocytes [3, 7]	Proliferation of activated human peripheric T cells, number of metabolically active cells [4]	Proliferation of human peripheric mononuclear cells (MNZ), number of metabolically active cells [1]	DNA synthesis of human peripheric mononuclear cells (MNZ) [5, 8]	DNA synthesis of human peripheric mononuclear cells (MNZ) [5, 9]	DNA synthesis of human peripheric mononuclear cells (MNZ) [5, 10]
C[C@H](NC(=O)[C@@H]1CCCN1C(=O)[C@@H]1CCCN1C(=O)[C@@H](O)[C@H](N)Cc1ccccc1)C(N)=O [Apstatin]	Inhibition of the Proliferation	–	–	–	–	–	–	–	–	–
NC(CCCCNC(=O)OCc1ccc([N+](=O)[O-])cc1)C(=O)N1CCSC1 (stereo not shown) [I49, Lys[Z(NO2)]-thiazolidid]	Inhibition of the Proliferation	Inhibition of the Proliferation	inhibited in a superadditive manner	inhibited in a superadditive manner	inhibited in a superadditive manner	Inhibition of the Proliferation	Inhibition of the Proliferation	inhibited in a superadditive manner	inhibited in a superadditive manner	inhibited in a superadditive manner
C[C@H](CS)C(=O)N1CCC[C@H]1C(=O)O [Captopril]	–	–	–	–	inhibited in a superadditive manner	–	–	–	inhibited in a superadditive manner	–
CC(C)C[C@H](NC(=O)[C@@H](O)[C@H](N)Cc1ccccc1)C(=O)N1CCC[C@H]1C(=O)N1CCC[C@H]1C(=O)O [Probestin]	–	Inhibition of the Proliferation	–	–	–	Inhibition of the Proliferation	–	–	–	–
CC(NC(=O)OC(C)(C)C)C(=O)N1CCSC1 (stereo not drawn) [Boc-Ala-thiazolidid]	–	–	–	inhibited in a superadditive manner	–	–	–	inhibited in a superadditive manner	–	–
CCCCC[C@H](CC(=O)NO)C(=O)N[C@H](C(=O)N1CCC[C@H]1CO)C(C)C [Actinonin]	–	Inhibition of the Proliferation	inhibited in a superadditive manner	–	–	Inhibition of the Proliferation	Inhibition of the Proliferation	–	–	inhibited in a superadditive manner
